# Measured values as given in ChEMBL document CHEMBL3817799, “N-Nitrosulfonamides: A new chemotype for carbonic anhydrase inhibition” (Bioorg Med Chem, 2016).
# Columns and labels:
# [1] = Inhibition of Malassezia globosa beta carbonic anhydrase preincubated for 15 mins prior to testing by stopped flow CO2 hydrase assay
# Malassezia globosa = assay: Potency index, ratio of acetazolamide Ki to compound Ki for Malassezia globosa beta carbonic anhydrase
# Carbonic anhydrase 2 = Carbonic anhydrase 2 (Homo sapiens, UniProt P00918); assay: Inhibition of human recombinant carbonic anhydrase 2 preincubated for 15 mins prior to testing by stopped flow CO2 hydrase assay
# Carbonic anhydrase 9 = Carbonic anhydrase 9 (Homo sapiens, UniProt Q16790); assay: Inhibition of human recombinant carbonic anhydrase 9 preincubated for 15 mins prior to testing by stopped flow CO2 hydrase assay
Structure (SMILES),Ki [1] [µM],Ratio Ki (Malassezia globosa),Ki (Carbonic anhydrase 2) [µM],Ki (Carbonic anhydrase 9) [µM]
CC(=O)Nc1nnc(S(N)(=O)=O)s1 [ACETAZOLAMIDE],74,–,–,–
CN(C)c1ccc(S(=O)(=O)N[N+](=O)[O-])cc1,0.22,10,> 50,–
Nc1cccc(S(=O)(=O)N[N+](=O)[O-])c1,2.75,10,5.11,> 50
Nc1nnc(S(=O)(=O)N[N+](=O)[O-])s1,4.5,10,4.52,0.84
NCc1ccc(S(=O)(=O)N[N+](=O)[O-])cc1,8.09,–,–,5.99
N#CCNc1ccc(S(=O)(=O)N[N+](=O)[O-])cc1,3.49,10,1.35,2
